For series [1], the target named is T1, Macrophage migration inhibitory factor (Homo sapiens) (UniProt P14174).
T1 sequence (whole entry): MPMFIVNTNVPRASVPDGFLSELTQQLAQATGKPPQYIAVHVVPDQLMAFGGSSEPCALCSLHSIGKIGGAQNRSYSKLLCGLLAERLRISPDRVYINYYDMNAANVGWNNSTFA
Description: Inhibition of human purified MIF tautomerase activity at 10 uM after 30 mins.

Series [2] deals with T1, Macrophage migration inhibitory factor (Homo sapiens). Description: Inhibition of human purified MIF tautomerase activity at 100 uM after 30 mins.
Series [3] in a line: Cytotoxicity against human PBMC assessed as cell viability measured during MIF secretion assay at 100 uM after 21 hrs by MTS assay. The series is classed as cell-based. The settings on record: PBMC (peripheral blood mononuclear cells). On the technique in general: Tetrazolium assays rely on reduction of a dye to a coloured formazan, in cell work by metabolically active cells.

Series [4] has as its system PBMC. Nature of the series: Antiinflammatory activity in human PBMC assessed as inhibition of MIF-induced IL1-beta production at 100 uM after 21 hrs by ELISA. In kind it is functional. (An ELISA detects its analyte on a solid surface through an enzyme-linked reagent.)
A short description of series [5]: Cytotoxicity against human PBMC assessed as cell viability measured during cytokines production assay at 100 uM after 21 hrs by MTS assay. In kind it is cell-based. The settings on record: PBMC (peripheral blood mononuclear cells).
Series [6] relates to PBMC. Nature of the series: Antiinflammatory activity in human PBMC assessed as inhibition of MIF-induced IL-6 production at 100 uM after 21 hrs by ELISA. In kind it is functional.
In series [7] the target is T1, Macrophage migration inhibitory factor (Homo sapiens). Nature of the series: Inhibition of MIF in human PBMC assessed as MIF secretion at 10 uM after 5 hrs by ELISA.
For series [8], the system named is PBMC. Description: Antiinflammatory activity in human PBMC assessed as inhibition of MIF-induced TNFalpha production at 100 uM after 21 hrs by ELISA. The series is classed as functional.
Series [9] concerns the target T1, Macrophage migration inhibitory factor (Homo sapiens). Description: Inhibition of MIF in human PBMC assessed as MIF secretion at 100 uM after 5 hrs by ELISA.
Series [10] has as its system PBMC. Nature of the series: Antiinflammatory activity in human PBMC assessed as inhibition of MIF-induced IL-6 production at 30 uM after 21 hrs by ELISA. The series is classed as functional.

SMILES strings stand for the structures.

As a reminder, the inhibition is how much of the control response was suppressed.

With `FC(F)(F)c1ccc(C2CC(c3cn(-c4cccc(C(F)(F)F)c4)c4ccccc34)=NO2)cc1` (stereo not given), the inhibition in series [1] was 4%; in series [2], 51%; in [7] it was 20%; in series [9], 5%. Further, the cytotoxicity at 21 h, 100 µM worked out at 0% in [3] and 6% in [5]. The inhibition at 100 µM with PBMC [4] is 15%; with PBMC [6], 6%; with PBMC [8], 2%. Besides, the inhibition at 30 µM with PBMC [10] was found to be 3%.
In the case of `Fc1ccc(C2CC(c3cn(-c4cccc(C(F)(F)F)c4)c4ccccc34)=NO2)cc1` (stereo not given), the inhibition in [1] was 55%; in series [2], 100%; in series [7], 0%; in series [9], 0%. For the same compound, the cytotoxicity at 21 h, 100 µM was found to be 0% in series [3] and 1% in series [5]. For the same compound, the inhibition at 100 µM in the series with PBMC [4] was 0%; with PBMC [6], 4%; with PBMC [8], 0%. The inhibition at 30 µM in the series with PBMC [10] was determined as 0%.
For the compound `COC(=O)C1(C)CC(c2ccoc2)=NO1` (stereo not given), the inhibition in [1] was found to be 22%; in [2], 22%; in series [7] it was 0%; in series [9], 0%. Besides, the figures for the cytotoxicity at 21 h, 100 µM in series [3] and in series [5] were 4% and 1%, respectively. The inhibition at 100 µM turned out to be 39% in the series with PBMC [4], 11% with PBMC [6] and 30% in the series on PBMC [8]. Further, the inhibition at 30 µM with PBMC [10] came to 0%.
On to `COc1ccc(C2CC(c3ccoc3)=NO2)cc1` (stereo not given), for which the inhibition came to 10% in series [1], 72% in series [2], 38% in series [7] and 82% in series [9]. The cytotoxicity at 21 h, 100 µM was found to be 0% in series [3] and 12% in series [5]. The inhibition at 100 µM came out at 13% with PBMC [4], 0% in the series with PBMC [6] and 2.5% in the series on PBMC [8]. Further, in the series with PBMC [10], the inhibition at 30 µM worked out at 0%.
Regarding `OCCC1CC(c2ccoc2)=NO1` (stereo not given), the inhibition in series [1] was found to be 3%; in [2], 23%; in series [7], 39%; in series [9], 58%. The cytotoxicity at 21 h, 100 µM in series [3] came out at 0%; in series [5] it was 10%. Moreover, the figures for the inhibition at 100 µM in the series with PBMC [4], in the series with PBMC [6] and in the series on PBMC [8] were 0%, 7% and 11%, respectively. In the series on PBMC [10], the inhibition at 30 µM stood at 18%.
Regarding `FC(F)(F)c1cccc(-n2cc(C3=NOC(c4ccccc4)C3)c3ccccc32)c1` (stereo not given), the inhibition in series [1] is 6%; in series [2], 71%; in series [7], 11%; in [9] it was 2%. The cytotoxicity at 21 h, 100 µM in [3] worked out at 0%; in series [5], 8%. Moreover, the results for the inhibition at 100 µM in the series on PBMC [4], in the series on PBMC [6] and with PBMC [8] were 12%, 9% and 0%, respectively. In the series on PBMC [10], the inhibition at 30 µM stood at 18%.
On to `COC(=O)CC1(C(=O)OC)CC(c2ccoc2)=NO1` (stereo not given), for which the inhibition in series [1] was determined as 23%; in [2] it was 47%; in series [7] it was 0%; in series [9] it was 0%. Also, the cytotoxicity at 21 h, 100 µM in series [3] was 7%; in series [5] it was 8%. Besides, the inhibition at 100 µM in the series with PBMC [4] came out at 57%; in the series on PBMC [6], 60%; in the series on PBMC [8] it was 4%. In addition, in the series on PBMC [10], the inhibition at 30 µM stood at 53%.
`O=C1CCCN1C1CC(c2cn(-c3cccc(C(F)(F)F)c3)c3ccccc23)=NO1` (stereo not given): the inhibition in series [1] is 1%; in series [2] it was 10%; in [7], 0%; in series [9] it was 0%. Moreover, the cytotoxicity at 21 h, 100 µM in series [3] was 15%; in [5], 16%. For the same compound, the inhibition at 100 µM in the series on PBMC [4] was 68%; with PBMC [6] it was 52%; in the series with PBMC [8] it was 68%. Moreover, in the series with PBMC [10], the inhibition at 30 µM was 25%.
On to `CC(C)(C)C(=O)OC1CC(c2ccoc2)=NO1` (stereo not given), for which the inhibition in series [1] was 13%; in [2] it was 30%; in series [7] it was 40%; in series [9], 86%. In addition, the figures for the cytotoxicity at 21 h, 100 µM in [3] and in [5] were 0% and 8%, respectively. In addition, the inhibition at 100 µM in the series with PBMC [4] came out at 6%; with PBMC [6], 1%; in the series on PBMC [8], 0%. Also, the inhibition at 30 µM in the series on PBMC [10] was determined as 3%.
Regarding `CC1(C(=O)O)CC(c2ccoc2)=NO1` (stereo not given), the inhibition in series [1] is 18%; in series [2], 29%; in series [7], 0%; in series [9] it was 21%. Also, the cytotoxicity at 21 h, 100 µM turned out to be 2% in series [3] and 10% in [5]. The inhibition at 100 µM with PBMC [4] was determined as 15%; in the series with PBMC [6], 7%; in the series on PBMC [8], 32%. The inhibition at 30 µM in the series with PBMC [10] amounted to 14%.
Regarding `COc1ccc(C2CC(c3cn(-c4cccc(C(F)(F)F)c4)c4ccccc34)=NO2)cc1` (stereo not given), the inhibition in series [1] is 55%; in series [2], 97%; in series [7], 0%; in series [9] it was 1%. Further, the cytotoxicity at 21 h, 100 µM was 0% in series [3] and 3% in [5]. Further, the results for the inhibition at 100 µM with PBMC [4], with PBMC [6] and with PBMC [8] were 37%, 13% and 23%, respectively. Also, the inhibition at 30 µM in the series on PBMC [10] was determined as 5%.
In the case of `COC(=O)C1(C)CC(c2cn(-c3cccc(C(F)(F)F)c3)c3ccccc23)=NO1` (stereo not given), the inhibition in series [1] was determined as 13%; in [2], 66%; in series [7], 4%; in series [9], 0%. Also, the values for the cytotoxicity at 21 h, 100 µM in [3] and in [5] were 5% and 2%, respectively. The figures for the inhibition at 100 µM with PBMC [4], in the series with PBMC [6] and with PBMC [8] were 89%, 65% and 81%, respectively. Besides, the inhibition at 30 µM with PBMC [10] was 25%.
Take `c1cc(C2=NOC(C3CCCCC3)C2)co1` (stereo not given): the inhibition turned out to be 23% in series [1], 54% in series [2], 13% in [7] and 35% in series [9]. The cytotoxicity at 21 h, 100 µM in [3] was determined as 6%; in [5] it was 1%. Moreover, the results for the inhibition at 100 µM in the series with PBMC [4], in the series on PBMC [6] and in the series with PBMC [8] were 15%, 0% and 0%, respectively. In addition, the inhibition at 30 µM with PBMC [10] is 0%.
Take `FC(F)(F)c1cccc(-n2cc(C3=NOC(Cn4ccc5ccccc54)C3)c3ccccc32)c1` (stereo not given): the inhibition in series [1] was 18%; in series [2], 100%; in series [7] it was 0%; in series [9], 8%. Further, the cytotoxicity at 21 h, 100 µM in [3] turned out to be 0%; in series [5], 16%. The inhibition at 100 µM was 44% in the series on PBMC [4], 17% in the series on PBMC [6] and 30% in the series with PBMC [8]. For the same compound, in the series on PBMC [10], the inhibition at 30 µM stood at 15%.
With `FC(F)(F)c1cccc(-n2cc(C3=NOC(C4CCCCC4)C3)c3ccccc32)c1` (stereo not given), the inhibition came to 28% in [1], 100% in series [2], 1% in [7] and 22% in series [9]. Also, the cytotoxicity at 21 h, 100 µM in series [3] was determined as 15%; in [5] it was 7%. The inhibition at 100 µM stood at 43% in the series on PBMC [4], 19% with PBMC [6] and 27% in the series on PBMC [8]. The inhibition at 30 µM in the series on PBMC [10] turned out to be 4%.
Take `OCCC1CC(c2cn(-c3cccc(C(F)(F)F)c3)c3ccccc23)=NO1` (stereo not given): the inhibition was found to be 0% in series [1], 91% in [2], 0% in series [7] and 0% in series [9]. The cytotoxicity at 21 h, 100 µM in series [3] was found to be 0%; in series [5], 9%. Also, the values for the inhibition at 100 µM with PBMC [4], in the series with PBMC [6] and with PBMC [8] were 88%, 84% and 88%, respectively. In the series on PBMC [10], the inhibition at 30 µM turned out to be 60%.
For the compound `COC(=O)CC1(C(=O)OC)CC(c2cn(-c3cccc(C(F)(F)F)c3)c3ccccc23)=NO1` (stereo not given), the inhibition in series [1] was 6%; in [2], 76%; in series [7] it was 0%; in series [9], 10%. The figures for the cytotoxicity at 21 h, 100 µM in series [3] and in series [5] were 0% and 2%, respectively. Moreover, the inhibition at 100 µM amounted to 23% in the series with PBMC [4], 4% in the series on PBMC [6] and 0% in the series with PBMC [8]. In the series on PBMC [10], the inhibition at 30 µM turned out to be 0%.
Turning to `c1cc(C2=NOC(CN3CCOCC3)C2)co1` (stereo not given), the inhibition in [1] was determined as 20%; in series [2], 56%; in [7] it was 44%; in series [9] it was 78%. The cytotoxicity at 21 h, 100 µM in [3] is 0%; in series [5], 6%. Further, the values for the inhibition at 100 µM in the series with PBMC [4], in the series with PBMC [6] and with PBMC [8] were 32%, 49% and 0%, respectively. In the series with PBMC [10], the inhibition at 30 µM was determined as 39%.
